In patent publication US10919905B2, “Polymorphism for irinotecan free base” (ScinoPharm Taiwan, Ltd., priority 2019, dated 2021):

Experiment: variable humidity x-ray powder diffraction (VH-XRPD), humidity effect on XRPD pattern
Type: physicochemical
Settings: FIG. 7
Method: X-ray Powder Diffraction patterns were collected on a Bruker AXS D8 diffractometer using Cu Kα1 radiation (40 kV, 40 mA), θ-2θ goniometer, and divergence of 10 mm slits, a Ge monochromator and LynxEye detector. The representative PXRD pattern was collected under ambient condition.
Irinotecan free base (119 g) and dichloromethane (1600 mL, 13.5 vol) were added to a 3 L flask at room temperature (20-30° C.) to obtain a first suspension mixture. Water (120 mL, 1 vol) and 5% sodium bicarbonate (480 mL, 4 vol) were added to the first mixture at room temperature. The suspension was filtered, and then the phases were allowed to separate, and an organic layer was saved. Water (600 mL, 5 vol) was added, and the phases were allowed to separate, and the organic layer was saved. The organic layer was concentrated to about 430 mL (3.6 vol). Ethyl acetate (1440 mL, 12 vol) was added to the concentrated organic layer at 25-35° C. to obtain a second mixture. The second mixture was concentrated to about 1665 mL (14 vol) then cooled to 15-25° C. to obtain a slurry mixture. The slurry mixture was filtered, and a wet cake was obtained and dried under the nitrogen to afford irinotecan free base form S3 (98.04 g). The Form S3 was studied by using variable humidity x-ray powder diffraction (VH-XRPD) to investigate the humidity effect on XRPD pattern (FIG. 7). […] The changes in diffraction peaks are reversible with the humidity being changed.

- humidity effect on XRPD pattern (change in diffraction peaks) (sample exposed at higher than 60% RH): the diffraction peaks changed
- reversibility of changes in diffraction peaks (with the humidity being changed): reversible
Compound: CCc1c2c(nc3ccc(OC(=O)N4CCC(N5CCCCC5)CC4)cc13)-c1cc3c(c(=O)n1C2)COC(=O)[C@]3(O)CC [Form S3, [1,4′-bipiperidine]-1′-carboxylic acid, (4S)-4,11-diethyl-3,4,12,14-tetrahydro-4-hydroxy-3,14-dioxo-1H-pyrano[3′,4′:6,7]indolizino[1,2-b]quinolin-9-yl ester]
- humidity effect on XRPD pattern (change in diffraction peaks) (sample exposed at 5-40% RH): no significant change in diffraction peaks was observed
